Data as given in US6909000B2, “Bridged bicyclic serine protease inhibitors” (Vertex Pharmaceuticals Incorporated, priority 2001, dated 2005).
Read-outs that look alike come from different tables or passages of the source.

Assays:
HCV NS3-NS4A protease = HCV NS3-NS4A protease (Hepatitis C virus genotype 1a, UniProt P27958); experiment: Ki determination, HPLC microbore assay with 5AB peptide substrate, tNS3 and KK4A cofactor; format: biochemical
Description: The Ki determinations were performed as follows. The Ki values for some compounds of the present invention are recited above in Table 1.
HPLC Microbore Method for Separation of 5AB Substrate and Products Substrate
NH2-Glu-Asp-Val-Val-(alpha)Abu-Cys-Ser-Met-Ser-Tyr-COOH Stock solution of 20 mM 5AB was made in DMSO w/0.2M DTT. This was stored in aliquots at −20 C.
Buffer: 50 mM HEPES, pH 7.8; 20% glycerol; 100 mM NaCl Total assay volume was 200 μL
The buffer was combined with KK4A, DTT, and tNS3; 177 μL of this solution was distributed each into wells of 96 well plate and incubated at 30° C. for ˜5-10 min. 3 μL of appropriate concentration of test compound dissolved in DMSO (DMSO only for control) was added to each well and incubate at 30° C. for 15 min. Reaction was initiated by addition of 20 μL of 200 μM 5AB substrate (20 μM concentration is equivalent or slightly lower than the Km for 5AB) and incubated for 20 min at 30° C. The reaction was terminated by addition of 50 μL of 10% TFA 200 μL aliquots were transferred to HPLC vials The SMSY product was isolated from substrate and KK4A by the method which follows. Microbore Separation Method • Instrumentation: • Hewlett Packard 1100 • Degasser G1322A • Binary pump G1312A • Autosampler G1313A • Column themostated chamber G1316A • Diode array detector G1315A • Column: Phenomenex Jupiter; 5 micron C18; 300 angstroms; • 150×2 mm; P/O 00F-4053-B0 • Column thermostat: 40° C. • Injection volume: 100 μL • Solvent A=HPLC grade water+0.1% TFA • Solvent B=HPLC grade acetonitrile+0.1% TFA
• Stop time: 17 min • Post-run time: 10 min

[1] = system: Cells containing hepatitis C virus (HCV) replicon; experiment: HCV replicon cell assay, Taqman real-time RT-PCR of HCV RNA level; format: cell-based; details: read-out: IC50 (concentration at which 50% inhibition of HCV RNA level is observed)
Description: As set forth above, the compounds of this invention are capable of inhibiting the activity of HCV NS3-NS4A protease. In order to quantitate the activity of the compounds of this invention, cells containing HCV replicon were incubated with the compounds of this invention, and a Taqman Real Time PCR assay was conducted to determine the percentage inhibition of HCV RNA level and the IC50 were calculated therefrom. The result are shown below in Table 1:
Cells containing hepatitis C virus (HCV) replicon were maintained in DMEM containing 10% fetal bovine serum (FBS), 0.25 mg per ml of G418, with appropriate supplements (media A).
On day 1, replicon cell monolayer was treated with a trypsin:EDTA mixture, removed, and then dilutedh media A into a final concentration of 100,000 cells per ml wit. 10,000 cells in 100 ul are plated into each well of a 96-well tissue culture plate, and culture overnight in a tissue culture incubator at 37° C.
On day 2, compounds (in 100% DMSO) were serially diluted into DMEM containing 2% FBS, 0.5% DMSO, with appropriate supplements (media B). The final concentration of DMSO was maintained at 0.5% throughout the dilution series.
The media on the replicon cell monolayer was removed, and then media B containing various concentrations of compounds was added. Media B without any compound was added to other wells as no compound controls.
Cells were incubated with compound or 0.5% DMSO in media B for 48 hours in a tissue culture incubator at 37° C.
At the end of the 48-hour incubation, the media was removed, and the replicon cell monolayer was washed once with PBS and stored at −80° C. prior to RNA extraction.
Culture plates with treated replicon cell monolayers were thawed, and a fixed amount of another RNA virus, such as Bovine Viral Diarrhea Virus (BVDV) was added to cells in each well. RNA extraction reagents (such as reagents from RNeasy kits) were added to the cells immediately to avoid degradation of RNA. Total RNA was extracted according the instruction of manufacturer with modification to improve extraction efficiency and consistency. Finally, total cellular RNA, including HCV replicon RNA, was eluted and stored at −80° C. until further processing.
A Taqman real-time RT-PCR quantification assay was set up with two sets of specific primers and probe. One was for HCV and the other was for BVDV. Total RNA extractants from treated HCV replicon cells were added to the PCR reactions for quantification of both HCV and BVDV RNA in the same PCR well. Experimental failure was flagged and rejected based on the level of BVDV RNA in each well. The level of HCV RNA in each well was calculated according to a standard curve that is run in the same PCR plate. The percentage of inhibition or decrease of HCV RNA level due to compound treatment was calculated using the DMSO or no compound control as 0% of inhibition. The IC50 (concentration at which 50% inhibition of HCV RNA level is observed) was calculated from the titration curve of any given compound.

[2] = 25 nM tNS3, 25 μM KK4A, 20 μM 5AB substrate, 30° C., pH 7.8, read-out: Ki
[3] = HCV replicon cells, 48 hours incubation, 2% FBS, 0.5% DMSO

HCV NS3-NS4A protease, sequence (P27958 1027-1208, other chains not shown): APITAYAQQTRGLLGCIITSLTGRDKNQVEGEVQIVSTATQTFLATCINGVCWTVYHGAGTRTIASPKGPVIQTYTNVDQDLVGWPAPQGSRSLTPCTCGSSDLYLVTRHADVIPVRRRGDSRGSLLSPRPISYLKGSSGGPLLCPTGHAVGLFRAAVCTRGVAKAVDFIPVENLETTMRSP

Question: Which Ki (HCV NS3-NS4A protease; [2]) does the source give for CCC[C@H](NC(=O)[C@@H]1[C@H]2CC[C@H](C2)N1C(=O)[C@@H](NC(=O)[C@@H](NC(=O)c1cnccn1)C1CCCCC1)C(C)C)C(=O)C(=O)NC1CC1 [Cmpd 1] here?
Answer: 220 nM

Question: And the IC50 ([1]; 48 h)?
Answer: > 1000 nM

Question: For CCC[C@H](NC(=O)C1[C@H]2CC[C@H](C2)N1C(=O)[C@@H](NC(=O)[C@@H](NC(=O)c1cnccn1)C1CCCCC1)C(C)(C)C)C(=O)C(=O)NC1CC1 (some centres unmarked) [Cmpd 2], which Ki (HCV NS3-NS4A protease) is on record?
Answer: 90 nM

Question: And the IC50 [1, 3]?
Answer: 886 nM

Question: Which results are given for CC(C)(C)[C@H](NC(=O)[C@@H](NC(=O)c1cnccn1)C1CCCCC1)C(=O)N1C(C(=O)NC(CC(F)F)C(=O)C(=O)NC2CC2)[C@H]2CC[C@@H]1C2 (some centres unmarked) [Cmpd 3]?
Answer: Ki (HCV NS3-NS4A protease): 63 nM; IC50 [1, 3]: 632 nM

Question: How did the Ki (HCV NS3-NS4A protease) turn out when CCCC(NC(=O)[C@@H]1[C@H]2CC[C@H](C2)N1C(=O)[C@@H](NC(=O)[C@@H](NC(=O)[C@H](CNC(=O)OC)NC(=O)OC)C1CCCCC1)C(C)C)C(=O)C(=O)NC1CC1 (some centres unmarked) [Cmpd 4] was run?
Answer: 95 nM

Question: What about the IC50 [1, 3] of the same molecule?
Answer: > 10000 nM

Question: CCCC(NC(=O)[C@@H]1[C@H]2CC[C@H](C2)N1C(=O)[C@@H](NC(=O)[C@@H](NC(=O)[C@H](CNC(=O)OC)NC(=O)OC)C1CCCCC1)C(C)(C)C)C(=O)C(=O)NC1CC1 (some centres unmarked) [Cmpd 5] was tested. Which Ki (HCV NS3-NS4A protease) did it give?
Answer: 39 nM

Question: And the IC50 [1, 3]?
Answer: 1410 nM

Question: CCCC(NC(=O)[C@@H]1[C@H]2CC[C@H](C2)N1C(=O)[C@@H](NC(=O)[C@@H](NC(=O)[C@H](CNC(=O)OC)NC(=O)OC)C1CCCCC1)C(C)C)C(=O)C(=O)N[C@@H](C)c1ccccc1 (some centres unmarked) [Cmpd 6] was tested. Which Ki (HCV NS3-NS4A protease) did it give?
Answer: 96 nM

Question: And the IC50 [1, 3]?
Answer: 2650 nM

Question: With CCCC(NC(=O)[C@@H]1[C@H]2CC[C@H](C2)N1C(=O)[C@@H](NC(=O)[C@@H](NC(=O)[C@H](CNC(=O)OC)NC(=O)OC)C1CCCCC1)C(C)(C)C)C(=O)C(=O)N[C@@H](C)c1ccccc1 (some centres unmarked) [Cmpd 7] as the molecule, how does the Ki (HCV NS3-NS4A protease) read?
Answer: 49 nM

Question: And the IC50 [1, 3]?
Answer: 449 nM

Question: Which results are given for CCCC(NC(=O)[C@@H]1[C@H]2CC[C@H](C2)N1C(=O)[C@@H](NC(=O)[C@@H](NC(=O)c1cnccn1)C1CCCCC1)C(C)(C)C)C(=O)C(=O)N[C@@H](C)c1ccccc1 (some centres unmarked) [Cmpd 8]?
Answer: Ki (HCV NS3-NS4A protease): 110 nM; IC50 [1, 3]: 679 nM

Question: How did the Ki (HCV NS3-NS4A protease; [2]) turn out when CCC[C@H](NC(=O)[C@@H]1[C@H]2CC[C@H](C2)N1C(=O)[C@@H](NC(=O)[C@@H](NC(=O)[C@H](C)NS(C)(=O)=O)C1CCCCC1)C(C)(C)C)C(=O)C(=O)NC1CC1 [Cmpd 9] was run?
Answer: 55 nM

Question: What about the IC50 ([1]; 48 h) of the same molecule?
Answer: 4310 nM

Question: Which Ki (HCV NS3-NS4A protease) does the source give for C[C@H](NS(C)(=O)=O)C(=O)N[C@H](C(=O)N[C@H](C(=O)N1[C@@H]2CC[C@@H](C2)[C@H]1C(=O)N[C@@H](CC(F)F)C(=O)C(=O)NC1CC1)C(C)(C)C)C1CCCCC1 [Cmpd 10] here?
Answer: 28 nM

Question: And the IC50 [1, 3]?
Answer: 10000 nM

Question: Which results are given for CCCC(NC(=O)[C@@H]1[C@H]2CC[C@H](C2)N1C(=O)[C@@H](NC(=O)[C@@H](NC(=O)[C@H](C)NS(C)(=O)=O)C1CCCCC1)C(C)(C)C)C(=O)C(=O)N[C@@H](C)c1ccccc1 (some centres unmarked) [Cmpd 11]?
Answer: Ki (HCV NS3-NS4A protease; [2]): 50 nM; IC50 ([1]; 48 h): 1230 nM

Question: Which Ki (HCV NS3-NS4A protease) does the source give for CCC[C@H](NC(=O)[C@@H]1[C@H]2CC[C@H](C2)N1C(=O)[C@@H](NC(=O)[C@@H](NC(=O)c1ncc[nH]1)C1CCCCC1)C(C)(C)C)C(=O)C(=O)N[C@@H](C)c1ccccc1 [Cmpd 12] here?
Answer: 68 nM

Question: What about the IC50 [1, 3] of the same molecule?
Answer: 412 nM

Question: What does the source list for CCC[C@H](NC(=O)[C@@H]1[C@H]2CC[C@H](C2)N1C(=O)[C@@H](NC(=O)[C@@H](NC(=O)c1ncc[nH]1)C1CCCCC1)C(C)(C)C)C(=O)C(=O)NC1CC1 [Cmpd 13]?
Answer: Ki (HCV NS3-NS4A protease): 42 nM; IC50 [1, 3]: 251 nM

Question: Which results are given for CCC[C@H](NC(=O)[C@@H]1[C@H]2CC[C@H](CC2)N1C(=O)C(NC(=O)[C@@H](NC(=O)c1cnccn1)C1CCCCC1)C(C)(C)C)C(=O)C(=O)NC1CC1 (some centres unmarked) [Cmpd 14]?
Answer: Ki (HCV NS3-NS4A protease): 125 nM; IC50 [1, 3]: 1240 nM

Question: Which results are given for CCC[C@H](NC(=O)[C@@H]1[C@H]2CC[C@H](C2)N1C(=O)[C@@H](NC(=O)[C@@H](NC(=O)[C@H](C)NC(=O)C(C)(C)C)C1CCCCC1)C(C)(C)C)C(=O)C(=O)NC1CC1 [Cmpd 15]?
Answer: Ki (HCV NS3-NS4A protease): 66 nM; IC50 [1, 3]: 1300 nM

Question: How did the Ki (HCV NS3-NS4A protease) turn out when CCC[C@H](NC(=O)[C@@H]1[C@H]2CC[C@H](C2)N1C(=O)[C@@H](NC(=O)[C@@H](NC(=O)c1[nH]c(C)c(C)c1C(C)=O)C1CCCCC1)C(C)(C)C)C(=O)C(=O)NC1CC1 [Cmpd 16] was run?
Answer: 54 nM

Question: What about the IC50 [1, 3] of the same molecule?
Answer: < 100 nM
